Assays:
[1] = system: HCT116 human colon cancer cells; experiment: Cell viability assay (CellTiter 96), HCT116; type: cell-based; settings: HCT-116, 120 h, cells treated for 5 days
Procedure: Cell viability assay. For determination of IC50 with cell proliferation assays, murine and human cancer cell lines were screened with 6-thio-dG with a 2-fold dilution series in 8 different points in 96-well plates. Cells were plated 24 hrs prior to the addition of drug, incubated for 4-5 days, and assayed using CellTiter 96® Aqueous One Solution Cell Proliferation Assay according to the manufacturer's instructions (Promega). Cell number per well ranged from 1,000 to 10,000 cells per well inversely proportional to doubling times. Dose response curves were generated and IC50s calculated using Graphpad Prism. All samples were analyzed in triplicate and standard deviations are from 2-3 independent experiments.

MC38 cells = experiment: Telomere dysfunction Induced Foci (TIF) and micronuclei assays in cells; type: cell-based, mouse
Procedure: Telomere dysfunction Induced Foci (TIF) and micronuclei assays. The TIF assay is based on the co-localization detection of DNA damage by an antibody against DNA damage response factors such as gamma-H2AX, 53BP1, and antibody against telomeric proteins or telomeres using telomere sequence-specific peptide nucleic acid (PNA) probe (Mender and Shay, 2015). Briefly, cells were seeded into 4-well chamber slides. Next day, cells were treated with 1 μM 6-thio-dG for 24 hrs (for TIF assay) or 1-3 μM 6-thio-dG for 48 hrs (for micronuclei assay). Slides were then rinsed twice with PBS and fixed in 4% formaldehyde (Thermo Fisher) in PBS for 10 mins. Then, cells were washed twice with PBS and permeabilized in 0.5% Triton X-100 in PBS for 10 min. Following permeabilization, cells were washed three times with PBS. Cells were blocked with 10% goat serum in 0.1% PBST (TritonX-100) for 1 hr. Gamma-H2AX (TIF assay, mouse, 1:1000) (Millipore) or lamin A/C (micronuclei assay, mouse, 1:500) (Santa Cruz) was diluted in blocking solution and incubated on cells for 2 hrs. Following three washes with PBST (1×PBS in 0.1% Triton) and 3 washes with PBS, cells were incubated with Alexaflour 568 conjugated goat anti-mouse (1:500) (Invitrogen) for 40 mins, then washed five times with 0.1% PBST. Cells were fixed in 4% formaldehyde in PBS for 20 mins at RT. The slides were sequentially dehydrated with 70%, 90%, 100% ethanol followed by denaturation with hybridization buffer containing FAM-conjugated telomere sequence (C-rich)-specific PNA probe, 70% formamide, 30% 2×SSC, 10% (w/v) MgCl2·6H2O (Fisher Sci), 0.25% (w/v) blocking reagent for nucleic acid hybridization and detection (Roche) for 7 mins at 80° C. on a heat block, followed by overnight incubation at RT. Slides were washed sequentially with 70% formamide (Ambion)/0.6×SSC (Invitrogen) (2×1 hr), 2×SSC (1×15 mins), PBS (1×5 mins) and sequentially dehydrated with 70%, 90%, 100% ethanol, then mounted with Vectashield mounting medium with DAPI (Vector Laboratories). […] TIFs were quantified using Image J.

[2] = system: tumor infiltrating lymphocytes (TILs); experiment: Flow cytometry of tumor infiltrating cells in MC38 tumor-bearing mice; type: in vivo, mouse
Procedure: Tumor digestion. Tumor tissues were excised and digested with 1 mg/mL Collagenase I (Sigma) and 0.5 mg/mL DNase I (Roche) in the 37° C. for 30 mins, tumor was then passed through a 70 μm cell strainer to remove large pieces of undigested tumor. Tumor infiltrating cells were washed twice with PBS containing 2 mM EDTA. Flow cytometry analysis. Single cell suspensions of cells were incubated with anti-FcγIII/II receptor (clone 2.4G2) for 15 minutes to block the non-specific binding before staining with the conjugated antibodies, and then incubated with indicated antibody for 30 mins at 4° C. in the dark. Fixable viability Dye eFlour 506 or eFlour780 (eBioscience) was used to exclude the dead cells. Foxp3 and Ki67 were stained intracellularly by using True-Nuclear transcription factor buffer set (BioLegend) following the manufacturer's instructions. Data were collected on CytoFLEX flow cytometer (Beckman Coulter, Inc) and analyzed by using FlowJo (Tree Star Inc., Ashland, OR) software.

HCT116 tumor cells = experiment: HCT116 tumor model in NSG-SGM3 and humanized NSG-SGM3 mice; type: in vivo, mouse; settings: three doses, 3 mg/kg
From the text: Humanized mouse tumor models. Humanized mouse reconstitution was previously described (Qiao et al., 2019). Briefly, four-week-old NSG-SGM3 female mice were irradiated with 100 cGy (X-ray irradiation with X-RAD 320 irradiator) one day prior to human CD34+ cells transfer. Cord blood was obtained from UT Southwestern Parkland Hospital. Human CD34+ cells were purified from cord blood by density gradient centrifugation (Ficoll® Paque Plus, GE healthcare) followed by positive immunomagnetic selection with anti-human CD34 microbeads (Stemcell). 1×10^5 CD34+ cells were intravenously injected into each recipient mouse. 12 weeks after engraftment, humanized mice with over 50% human CD45+ cells reconstitution and age and sex matched non-humanized mice were inoculated with 1×10^6 HCT116 tumor cells subcutaneously on the right flank. 3 mg/kg 6-thio-dG was intraperitoneally given on days 7, 8 and 9. Tumor volumes were measured twice a week. Experiments were performed in compliance with UTSW Human Investigation Committee protocol and UTSW Institutional Animal Care and Use Committee.

[3] = system: LLC murine lung tumor cells; experiment: LLC tumor growth and treatment in mice; type: in vivo, mouse
Procedure: Tumor growth and treatment. A total of 5×10^5 MC38, 5×10^5 CT26 or 1×10^6 LLC cells were inoculated subcutaneously into right dorsal flanks of the mice in 100 μL phosphate buffered saline (PBS). Tumor-bearing mice were randomly grouped into treatment groups when tumors grew to around 100 mm^3. […] For CSF1R, NKL.1, CD4+ and CD8+ T cell depletion, 200 μg of antibodies were intraperitoneally injected 1 day before treatment initiation and then twice a week for 2 weeks. For PD-L1 blockade combination therapy in MC38 model, 6-thio-dG was given on day 10 and day 11, 50 μg PD-L1 was intraperitoneally injected on day 13 and 17. For PD-L1 blockade combination therapy in LLC model, 6-thio-dG was given on day 4, 5, 6, 10 and 11, 200 μg PD-L1 was intraperitoneally injected on day 8 and 13. Tumor volumes were measured by the length (a), width (b) and height (h) and calculated as tumor volume=abh/2.

[4] = 6 days after the last of three daily doses, 3 mg/kg

Nc1nc2c(ncn2[C@H]2C[C@H](O)[C@@H](CO)O2)c(=S)[nH]1 [6-thio-dG, 6-thio-2′-deoxyguanosine]
IC50 [1]: 730 nM
interphase bridges between daughter cells during telophase (MC38 cells): induced interphase bridges
telomere stress by TIF assay (MC38 cells; 1 μM 6-thio-dG for 24 hrs): induced telomere damages
micronuclei (MC38 cells; 1 μM 6-thio-dG, 48 hrs): induced micronuclei
Treg cells (CD4+ Foxp3+) ([2]; 3 mg/kg, days 7, 8, 9): no significant changes
tumor infiltrating NK cells ([2]; 3 mg/kg, days 7, 8, 9): increased
PD-1 expression on CD8+ T cells (frequency and per cell basis) ([2]; 3 mg/kg, days 7, 8, 9, 7 days after first treatment): upregulated
CD8+ T cell proliferation (Ki67 expression) ([2]; 6 days after last treatment, 3 mg/kg): significant upregulation
frequency of CD3+ T cells in TILs [2, 4]: increase
frequency of CD8+ T cells in TILs [2, 4]: increase
YFP+ T cells in the tumor ([2]; IFN-γ YFP reporter mice, eleven days after last treatment): significantly increased
tumor-specific (OVA tetramer) CD8+ T cells in tumors ([2]; MC38-OVA tumor model, 6 days after 6-thio-dG treatment): increased
tumor growth (HCT116 tumor cells; humanized NSG-SGM3 mice): significantly delayed tumor growth
tumor growth (HCT116 tumor cells; immunocompromised NSG-SGM3 mice): did not have significant difference
tumor growth ([3]; C57BL/6 mice, 3 mg/kg, three days treatment (days 4, 5, 6)): significant tumor growth delay
tumor growth (FIG. 8A) ([3]; lewis lung carcinoma, three days 6-thio-dG followed two days later with anti-PD-L1): significant tumor control for 20 days

— patent US12097213B2, “Sequential treatment of cancers using 6-thio-dG, checkpoint inhibitors and radiation therapy” (The Board of Regents of the University of Texas System, priority 2020, dated 2024)
